System: transcription factor AP-1
Test: AP-1-driven luciferase reporter gene assay in transfected Jurkat T cells (Jurkat/AP-1rep)
Assay type: cell-based
Settings: Jurkat/AP-1rep cells stimulated 5.5 h at 37° C. with phorbol myristate acetate and ionomycin; FIG. 1
Method: The compounds of formula (I) were assayed for AP-1 enhancement. The compounds of this invention were tested in assays for the modulation of stimulated activity of an AP-1-driven reporter gene in the Jurkat T cell line. The activation of this reporter gene results in luciferase production and the amounts of produced luciferase parallels the level of AP-1 activity. A high level of AP-1 activity is pivotal to e.g. high production of IL-2.
Cells from the Jurkat T cell line were transfected with an AP-1-driven luciferase gene reporter construct (Parra et al., 1997) together with a selection gene vector. Selected clones from the resulting stable AP-1 reporter gene transfectants were used in the assays for AP-1 transcription factor activity. These transfected Jurkat cells (Jurkat/AP-1rep) were grown in RPMI 1640 supplemented with glutamine, hepes, sodium pyruvate, gentamicin, 10% FCS and G418. To evaluate distinct compounds for their capacity to enhance the AP-1 activity, Jurkat/AP-1rep cells were stimulated for 5.5 h in the temperature of 37° C. with phorbol myristate acetate and ionomycin in the absence and presence of test compounds. The 96 well plates containing the cell cultures were then put on ice until harvested. […] AP-1 activity was measured as luminiscence produced by luciferase substrate, which was added to the wells in conjunction with measurement.

SMILES: CCN(CC)C(C)CNC(=O)c1ccc(NC(=O)C(C)C)cc1OC (stereo not shown) [Compound A, N-[(2-Diethylamino)propyl]-4-isobutyrylamino-2-methoxy-benzamide]
- enhancement of the AP-1 driven reporter gene activity (luciferase luminescence): enhance the activity of the AP-1 driven reporter in a dose dependent fashion down to μM concentrations
